Where two headings read alike, the source gives them in different places.
Columns and labels:
[1] = test system: 300 P. aeruginosa clinical isolates from 63 countries; test: Susceptibility study, IHMA panel; type: cell-based, Pseudomonas aeruginosa; conditions: n: 300
Source text: First, 209 clinical isolates of P. aeruginosa were collected, unbiased of susceptibility, from three US hospitals by Micromyx (now part of Microbiologics; Kalamazoo, MI, USA). IHMA (Monthey, Switzerland) collected 300 P. aeruginosa clinical isolates, also unbiased of susceptibility, from the following 63 countries: Argentina, Australia, Belgium, Brazil, Canada, Chile, Colombia, Costa Rica, Croatia, Czech Republic, Denmark, Dominican Republic, Ecuador, France, Georgia, Germany, Greece, Guatemala, Hong Kong, Hungary, India, Ireland, Israel, Italy, Japan, Jordan, Kazakhstan, Kenya, South Korea, Kuwait, Latvia, Lebanon, Lithuania, Malaysia, Mexico, Morocco, Netherlands, New Zealand, Nigeria, Panama, Philippines, Poland, Portugal, Puerto Rico, Qatar, Romania, Russia, Saudi Arabia, Serbia, Slovenia, South Africa, Spain, Sweden, Switzerland, Taiwan, Thailand, Tunisia, Turkey, Ukraine, United Kingdom, United States, Venezuela, and Vietnam. Isolates came from the following types of infection: genitourinary (urine), gastrointestinal (stomach), gastrointestinal (pancreas), […] (wound), respiratory (sputum), […] (blood), respiratory (bronchoalveolar lavage), […] (burn), respiratory (endotracheal aspirate), bodily fluids (abscess/pus), […] (impetiginous lesions), gastrointestinal (abscess) and respiratory (bronchial brushing). CF patients were not excluded.
(§1) MIC assays were performed as described previously.

[2] = test system: 34 MDR P. aeruginosa clinical isolates (CDC & FDA AR Isolate Bank); test: microbe, parasite or virus in culture; type: cell-based, Pseudomonas aeruginosa; conditions: for MIC: Pseudomonas aeruginosa, alone or + labelled EPI […] (TXA09155 head: 50 µg/mL)
Source text: P. aeruginosa ATCC 27853 was obtained from the American Type Culture Collection (ATCC; Manassas, VA, USA). P. aeruginosa multidrug-resistant isolates were obtained from the CDC and FDA Antibiotic Resistance Isolate Bank (Atlanta, GA, USA). P. aeruginosa DA7232 (gyrA-T83I, parC-S80L) was a kind gift from Prof. Dan I. Andersson, Uppsala University, Uppsala, Sweden, and has been characterized elsewhere. P. aeruginosa strains K767 (WT), K1455 (mexAB-oprM overexpressed), K2415 (mexXY-oprM overexpressed), and K3698 (oprM∆) were obtained from Prof. Keith Poole, Queen’s University, Kingston, Ontario, Canada and have been characterized elsewhere. Bacterial cells were grown in cation-adjusted Mueller Hinton (CAMH) media, brain heart infusion broth (BHI), or tryptic soy agar (TSA) plates were all obtained from Becton, Dickinson, and Company (BD; Franklin Lakes, NJ, USA). […] Azithromycin was purchased from Tokyo Chemical Industry (Portland, OR, USA). […] Ethidium bromide (EtBr) and glucose were purchased from VWR (Radnor, PA, USA). MC-04,124 and TXA01182 were synthesized at TAXIS Pharmaceuticals. Carbonyl cyanide 3-chlorophenylhydrazone (CCCP) was purchased from Enzo Life Sciences (Farmingdale, NY, USA). DiOC2 (3) and propidium iodide were obtained from Thermo Fisher Scientific (Waltham, MA, USA).
as §1

[3] = in combination TXA09155 fixed […]
[4] = n: 34, in combination EPI fixed […]

C[C@H]1COc2c(N3CCN(C)CC3)c(F)cc3c(=O)c(C(=O)O)cn1c23 [Levofloxacin]
% R (percent resistant per breakpoints) ([1]; LVX ≤1S 2I ≥4R): 22% | Cumulative Susceptibility % Strains at 0.5 ([1]; concentration 0.5 µg/ml): 60% | Cumulative Susceptibility % Strains at 1 ([1]; concentration 1 µg/ml): 69% | Cumulative Susceptibility % Strains at 2 ([1]; concentration 2 µg/ml): 78% | Cumulative Susceptibility % Strains at 4 ([1]; concentration 4 µg/ml): 83% | Cumulative Susceptibility % Strains at 8 ([1]; concentration 8 µg/ml): 84% | Cumulative Susceptibility % Strains at 16 ([1]; concentration 16 µg/ml): 89% | Cumulative Susceptibility % Strains at 32 ([1]; concentration 32 µg/ml): 95% | Cumulative Susceptibility % Strains at >32 ([1]; concentration >32 µg/ml): 100% | Cumulative Susceptibility % Strains at 0.06 ([1]; concentration column 0.06 µg/ml): 1% | MIC50 [1, 3]: 0.5 µg/mL | MIC90 [1, 3]: 32 µg/mL | MIC ([2]; read-out: Levofloxacin MIC, strain AR-0229): 64 µg/mL | MIC ([2]; read-out: Levofloxacin MIC, strain AR-0230): 64 µg/mL | MIC ([2]; read-out: Levofloxacin MIC, strain AR-0231): 64 µg/mL | MIC ([2]; read-out: Levofloxacin MIC, strain AR-0232): 8 µg/mL | MIC ([2]; read-out: Levofloxacin MIC, strain AR-0233): 4 µg/mL | MIC ([2]; read-out: Levofloxacin MIC, strain AR-0234): 8 µg/mL | MIC ([2]; read-out: Levofloxacin MIC, strain AR-0236): 32 µg/mL | MIC ([2]; read-out: Levofloxacin MIC, strain AR-0239): 64 µg/mL | MIC ([2]; read-out: Levofloxacin MIC, strain AR-0240): 128 µg/mL | MIC ([2]; read-out: Levofloxacin MIC, strain AR-0241): 64 µg/mL | MIC ([2]; read-out: Levofloxacin MIC, strain AR-0242): 16 µg/mL | MIC ([2]; read-out: Levofloxacin MIC, strain AR-0244): 128 µg/mL | MIC ([2]; read-out: Levofloxacin MIC, strain AR-0245): 128 µg/mL | MIC ([2]; read-out: Levofloxacin MIC, strain AR-0246): 64 µg/mL | MIC ([2]; read-out: Levofloxacin MIC, strain AR-0247): 2 µg/mL | MIC ([2]; read-out: Levofloxacin MIC, strain AR-0248): 16 µg/mL | MIC ([2]; read-out: Levofloxacin MIC, strain AR-0249): 64 µg/mL | MIC ([2]; read-out: Levofloxacin MIC, strain AR-0250): 64 µg/mL | MIC ([2]; read-out: Levofloxacin MIC, strain AR-0252): 32 µg/mL | MIC ([2]; read-out: Levofloxacin MIC, strain AR-0253): 2 µg/mL | MIC ([2]; read-out: Levofloxacin MIC, strain AR-0256): 0.5 µg/mL | MIC ([2]; read-out: Levofloxacin MIC, strain AR-0258): 0.5 µg/mL | MIC ([2]; read-out: Levofloxacin MIC, strain AR-0259): 0.5 µg/mL | MIC ([2]; read-out: Levofloxacin MIC, strain AR-0260): 64 µg/mL | MIC ([2]; read-out: Levofloxacin MIC, strain AR-0261): 8 µg/mL | MIC ([2]; read-out: Levofloxacin MIC, strain AR-0262): 4 µg/mL | MIC ([2]; read-out: Levofloxacin MIC, strain AR-0264): 32 µg/mL | MIC ([2]; read-out: Levofloxacin MIC, strain AR-0265): 64 µg/mL | MIC ([2]; read-out: Levofloxacin MIC, strain AR-0266): 32 µg/mL | MIC ([2]; read-out: Levofloxacin MIC, strain AR-0267): 32 µg/mL | MIC ([2]; read-out: Levofloxacin MIC, strain AR-0269): 32 µg/mL | MIC ([2]; read-out: Levofloxacin MIC, strain AR-0270): 32 µg/mL | MIC ([2]; read-out: Levofloxacin MIC, strain AR-0271): 32 µg/mL | MIC ([2]; read-out: Levofloxacin MIC, strain AR-0272): 16 µg/mL | Cumulative Susceptibility % Strains at 0.5 ([2]; concentration 0.5 µg/ml, n: 34): 9% | Cumulative Susceptibility % Strains at 1 ([2]; concentration 1 µg/ml, n: 34): 9% | Cumulative Susceptibility % Strains at 2 ([2]; concentration 2 µg/ml, n: 34): 15% | Cumulative Susceptibility % Strains at 4 ([2]; concentration 4 µg/ml, n: 34): 21% | Cumulative Susceptibility % Strains at 8 ([2]; concentration 8 µg/ml, n: 34): 29% | Cumulative Susceptibility % Strains at 16 ([2]; concentration 16 µg/ml, n: 34): 38% | Cumulative Susceptibility % Strains at 32 ([2]; concentration 32 µg/ml, n: 34): 62% | Cumulative Susceptibility % Strains at 0.06 ([2]; concentration column 0.06 µg/ml, n: 34): 0% | Cumulative Susceptibility % Strains at 64 ([2]; concentration column 64 µg/ml, n: 34): 91% | Cumulative Susceptibility % Strains at 128 ([2]; concentration column 128 µg/ml, n: 34): 100% | Cumulative Susceptibility % Strains at ≤0.03 ([2]; concentration column ≤0.03 µg/ml, n: 34): 0% | MIC50 [2, 4]: 32 µg/mL | MIC90 [2, 4]: 64 µg/mL | MIC Range [2, 4]: 0.5 to 128 µg/mL | MIC Range ([2]; n: 34, in combination EPI fixed […], listed as LVX): 0.5 to 128 µg/mL

— publication PMC9220351, “Evaluation of a Conformationally Constrained Indole Carboxamide as a Potential Efflux Pump Inhibitor in Pseudomonas aeruginosa” (Antibiotics, 2022)
